“And” between values parts separate entries of the source, which are not always exact repeats. Equal entries are not always repeated. “Also recorded” adds a separate entry of the source. Structures can show the parent of a compound that is named as a salt. Where two headings read alike, the source gives them in different places. Marks after values point to notes of the source that are not given here.
What was measured:
[1] = tested on: Eighteen tested microorganisms (Gram-positive bacteria, Gram-negative bacteria, yeasts, fungi); test: Antimicrobial activity, agar well diffusion method, whole panel; type: cell-based; details: whole panel of tested microorganisms, in words
Excerpt: Eighteen tested microorganisms including five Gram-positive bacteria (Bacillus subtilis ATCC 6633, Bacillus amyloliquefaciens 4BCL-YT, Staphylococcus aureus ATCC 25923, Listeria monocytogenes NBIMCC 8632, Enterococcus faecalis ATCC 19433), five Gram-negative bacteria (Salmonella enteritidis ATCC 13076, Klebsiella sp.—clinical isolate, Escherichia coli ATCC 25922, Proteus vulgaris ATCC 6380, Pseudomonas aeruginosa ATCC 9027), two yeasts (Candida albicans NBIMCC 74, Saccharomyces cerevisiae ATCC 9763) and six fungi (Aspergillus niger ATCC 1015, Aspergillus flavus, Penicillium sp., Rhizopus sp., Mucor sp.—plant isolates, Fusarium moniliforme ATCC 38932) from the collection of the Department of Microbiology at the University of Food Technologies—Plovdiv, Bulgaria, were selected for the antimicrobial activity test.
The antimicrobial activity of the samples was determined by the agar well diffusion method. The tested bacteria B. subtilis and B. amyloliquefaciens were cultured on LBG agar at 30 °C. The test bacteria S. aureus, L. monocytogenes, E. faecalis, S. enteritidis, Klebsiella sp., E. coli, P. vulgaris and P. aeruginosa were cultured on LBG agar at 37 °C for 24 h. The yeast C. albicans was cultured on MEA at 37 °C, while S. cerevisiae was cultured on MEA at 30 °C for 24 h. The fungi A. niger, A. flavus, Penicillium sp., Rhizopus sp., Mucor sp., and F. moniliforme were grown on MEA at 30 °C for 7 days or until sporulation.
The inocula of the tested bacteria/yeasts were prepared by homogenization of a small amount of biomass in 5 mL of sterile 0.5% NaCl. […] The number of viable cells and fungal spores was determined using a bacterial counting chamber Thoma (Poly-Optik, GmbH, Bad Blankenburg, Germany). […] Next, the inoculated media were transferred in a quantity of 18 mL in sterile Petri plates (d = 90 mm) (Gosselin™, Hazebrouck, France) and allowed to harden. […]
The antimicrobial activity was determined by measuring the diameter of the inhibition zones around the wells on the 24th and 48th h of incubation. […]

MTT cell viability assay [2] = type: cell-based, human; details: human, ± SD, read-out: In vitro cytotoxicity (IC50)
Method: (§1) In order to evaluate the in vitro biocompatibility of the experimental compounds, a series of cell viability assays were performed against human malignant leukemic cell lines (LAMA-84, K-562) as well as normal murine fibroblast cells (CCL-1). All cell lines were purchased from the German Collection of Microorganisms and Cell Cultures (DSMZ GmbH, Braunschweig, Germany). Cell cultures were cultivated in a growth medium RPMI 1640 supplemented with 10% fetal bovine serum (FBS), 5% L-glutamine, and incubated under standard conditions of 37 °C and 5% humidified CO2 atmosphere.
(§2) The experimental design involved a number of cytotoxicity assays that measured cell growth inhibition by the newly synthesized compounds. Cell viability was evaluated using a standard MTT-based colorimetric assay. Exponential-phased cells were harvested and seeded (100 μL/well) in 96-well plates at the appropriate density (3 × 10^5) for the suspension cultures (LAMA-84 and K-562) and 1.5 × 10^5 for the adherent one (CCL-1). Cells were treated and incubated with various concentrations of the experimental compounds in the concentration range of 400-6.25 µM. After exposure time of 72 h, a filter-sterilized MTT substrate solution (5 mg/mL in PBS) was added to each well of the culture plate. A further 1–4 h incubation allowed for the formation of purple insoluble formazan precipitates. The latter were dissolved in isopropyl alcohol solution containing 5% formic acid prior to absorbance measurement at 550 nm using a microplate reader (Labexim LMR-1). Collected absorbance values were blanked against MTT and isopropanol solution and normalized to the mean value of the untreated control (100% cell viability). Semi-logarithmic “dose–response” curves were constructed and the half-inhibitory concentrations of the screened compounds against each tested cell line were calculated. Values of p ≤ 0.05 were considered statistically significant.

LAMA-84 = test: MTT cell viability assay; type: cell-based, human; details: LAMA-84, CML in blast crisis (bcr-abl+), 72 h, ± SD
Method: as §1, §2

K-562 = test: MTT cell viability assay; type: cell-based, human; details: K-562, Blast phase CML (bcr-abl+), 72 h, ± SD
Method: as §1, §2

MTT cell viability assay [3] = type: cell-based; details: mouse, CCL-1 normal fibroblast cells, CCL-1, normal murine fibroblast cells, read-out: In vitro cytotoxicity (IC50)
Method: as §1, §2

5-HT3 receptor = test: Immunohistochemical analysis of 5-HT3 expression in gastric SM strips; design: species or system Wistar rats; key to 5-HT3 expression, 5-HT / 5-HT3 expression, Response to Compound: −: absent; +: low; ++: moderate; +++: strong; details: for 5-HT3 expression in SM preparations: immunohistochemical staining after 1 h incubation, in words; for 5-HT3 expression, Response to Compound: SM preparations incubated with the compound
Method: […] Then, each SM strip was fixed in 10% neutral buffer formalin for 24–48 h and submitted for standard processing with hematoxylin and eosin staining.
The SM fragments from a rat’s gastric wall were fixed in a 10% neutral formalin solution and embedded in paraffin. Paraffin sections of 5 μm thickness were subjected to hematoxylin and eosin (H-E) staining for histochemical analysis.
Sections of the SM fragments from the wall of a rat’s stomach with a thickness of 5 µm were deparaffinized, then subjected to antigenic detection of the epitopes with citrate buffer, and an endogenous peroxidase blockade was made with hydrogen […] 3%, a kit was used to block the endogenous biotin, and a reagent was used to block non-specific binding (Superblock, Scy Tek, Santa Cruz Biotech. Inc. Heidelberg, Germany) follows incubate for 24 h (at 4 °C) with monoclonal mouse anti-5-HT3, next incubated with a secondary antibody: biotinylated anti-rabbit for 10 min at room temperature. The reaction was visualized with 3,3′-diaminobenzidine tetrachloride and counterstained with Mayer’s hematoxylin.
A quantitative and statistical analysis of immunohistochemical reaction using the Olympus DP-Soft image system (version 4.1 for Windows) was carried out on a Microphot-SA (Nikon, Japan) microscope equipped with a Camedia-5050 Z digital camera (Olympus, Japan). The analysis was performed on sections from the SM strips from the stomach of Wistar rats (n = 6 for each group). Five sections of the SM strips were measured, and the percentage of cells expressing 5-HT3 in the circular and longitudinal layer of SM cells, as well as in the myenteric plexus of the stomach, was determined. Each antibody was analyzed for five fields, in each of them the average number of cells with positive unit area response at ×200 magnification.

[4] = tested on: SM preparations from the corpus gastric muscle; test: Ex vivo bioelectrical activity of smooth muscle preparations, single sucrose gap method; design: species or system Wistar rats; details: 5 × 10^−5 M; for Amplitude of slow waves, Measured value / Amplitude of spike potentials, Measured value / Number of slow waves, Measured value / Number of spike potentials, Measured value: 10 min, n = 7, mean ± SEM; for effect on bioelectrical activity (slow waves, spike potentials): in words; for Changes in the membrane potential: base activity taken as 100%, ↑ depolarization, ↓ hyperpolarization
Method: Adult male Wistar rats weighing 280–300 g were used. Animals were housed in standard laboratory conditions (23 to 25 °C, 50–55% humidity, 12/12 h light/dark cycle), while food and water were provided ad libitum.
Circular SM preparations were dissected from the corpus gastric muscle (26–28 mm long and 0.8–0.9 mm wide; without mucosa). Two or three muscle strips were taken from the rat stomach. The number of SM preparations used for each data point is indicated by n. After dissection, the tissues must prevent loss of viability, so during the dissection, the tissues were systematically moistened with a solution (NaCl:KCl:CaCl2 in ratio 27.2:1.1:1) prepared at 4 °C.
The BEA of SM preparations was investigated by means of the single sucrose gap method with silver non-polarizable freshly chlorinated electrodes. The muscle strips were divided into 3 zones: two electrode sections were flushed with isotonic KCl solution and Krebs solution (pH 7.3), respectively, and separated by a sucrose layer of high electric resistance. Krebs contained the following (in mM): NaCl 120; KCl 5.9; CaCl2 2.5; MgCl2 1.2; NaH2PO4 1.2; NaHCO3 15.4; glucose 11.5. All the ingredients for this solution were of analytical grade and obtained from Merck (Darmstadt, Germany). Deionized water (18.2 mX/cm^2) was used thoroughly. The KCl solution is similar to the Krebs solution but with an equimolar substitution of NaCl with KCl. An isotonic sucrose solution, due to its very high specific resistance (about 10^6 Ω·cm), provides the best possible separation of the sucrose solution from the physiological solution in the “normal” pool, on the one hand, and the solution providing a zero value of the membrane potential in the pool with another recording electrode.
The inflow rate of each solution (Krebs, KCl, and isotonic sucrose solution) was controlled by a needle valve and continuously aerated with a mixture of 95% O2 and 5% CO2, and the temperature was maintained at 37 °C. A potential difference between the two end sections of the gap (control conditions) was achieved by means of silver non-polarizable, freshly chlorinated electrodes and after a 40-min period of adaptation and stabilization was accepted as the initial (control). The Krebs solution was changed several times during the adaptation period. The viability of the SM preparations was periodically tested by treatment with 1 × 10^−6 M ACh.
The membrane potential value was visualized by means of a Linseis recorder (Selb, Germany). A pair of measuring electrodes is located on both sides of the sucrose sections. The pH (pH 7.3; 37 °C) of the Krebs bathing solution was measured before each experiment by pH-meter HI5521 (Hanna Instruments Inc., Woonsocket, RI, USA). […]
The new substances were dissolved initially in dimethyl sulphoxide (DMSO) to prepare a 5 × 10^−2 M stock solution. Further dilutions were made in distilled deionized water and were applied by adding aliquots of their concentrated solutions to the tissue bath.

[5] = K-562 cells (blast phase chronic myeloid leukemia), K-562, Blast phase CML (bcr-abl+)
[6] = LAMA-84, CML in blast crisis (bcr-abl+)

Row | Structure (SMILES) | 5-HT3 expression, Response to Compound (5-HT3 receptor) | 5-HT3 expression, 5-HT (5-HT3 receptor; SM preparations incubated with 5-HT, one per compound series) | antimicrobial activity [1] | IC50 at 72 h (MTT cell viability assay [2]; [5]) | IC50 at 72 h (MTT cell viability assay [2]; [6]) | In vitro cytotoxicity (IC50) (LAMA-84) | In vitro cytotoxicity (IC50) (K-562) | IC50 at 72 h (MTT cell viability assay [3]) | 5-HT3 expression in SM preparations (5-HT3 receptor) | Amplitude of slow waves, Measured value [4] | Amplitude of spike potentials, Measured value [4] | Number of slow waves, Measured value [4] | Number of spike potentials, Measured value [4] | effect on bioelectrical activity (slow waves, spike potentials) [4] | Changes in the membrane potential [4]
1 | CCN(CCCCOC(=O)c1ccc(OC)c(OC)c1)C(C)Cc1ccc(OC)cc1 (centres unmarked) [Mebeverine hydrochloride, mebeverine hydrochloride, reference compound] |  |  | did not show any antimicrobial activity | 85.4 ± 8.3 µM | 72 ± 6.2 µM | just under the hundred-micromolar range | just under the hundred-micromolar range | > 300 µM | weak 5-HT3 expression observed |  |  |  |  |  | 
2 | NCCc1c[nH]c2ccc(O)cc12 [Compound 5-HT, 5-hydroxytryptamine, reference compound] |  | ++ |  |  |  |  |  |  | higher number of 5-HT3R positive cells per section and 5-HT3 expression observed in the myenteric plexus |  |  |  |  |  | 

Second part, led by results:

Row | 5-HT3 expression, Response to Compound (5-HT3 receptor) | 5-HT3 expression, 5-HT (5-HT3 receptor; SM preparations incubated with 5-HT, one per compound series) | Structure (SMILES) | antimicrobial activity [1] | IC50 at 72 h (MTT cell viability assay [2]; [5]) | IC50 at 72 h (MTT cell viability assay [2]; [6]) | In vitro cytotoxicity (IC50) (LAMA-84) | In vitro cytotoxicity (IC50) (K-562) | IC50 at 72 h (MTT cell viability assay [3]) | 5-HT3 expression in SM preparations (5-HT3 receptor) | Amplitude of slow waves, Measured value [4] | Amplitude of spike potentials, Measured value [4] | Number of slow waves, Measured value [4] | Number of spike potentials, Measured value [4] | effect on bioelectrical activity (slow waves, spike potentials) [4] | Changes in the membrane potential [4]
3 | − |  | CC(C)C(Cc1ccccc1)NC(=O)c1ccccc1 (centres unmarked) [Compound 4b, N-(3-methyl-1-phenylbutan-2-yl)benzamide] |  | 329 ± 20.4 µM | 265 ± 20.2 µM |  |  | > 300 µM | no modulation on the 5-HT3R expression; also recorded: no 5-HT3 expression observed | 5.09 ± 0.10 mV | 1.40 ± 0.12 mV | 4.50 ± 0.49 min⁻¹ | 22.28 ± 0.18 min⁻¹ | do not affect the BEA | 0%
4 | + |  | CC(C)C(Cc1ccccc1)NC(=O)Cc1ccccc1 (centres unmarked) [Compound 4d, N-(3-methyl-1-phenylbutan-2-yl)-2-phenylacetamide] |  | 244 ± 18.5 µM | 328 ± 15.9 µM |  |  | > 300 µM | very weak non-specific effect; also recorded: weak 5-HT3 expression observed | 4.97 ± 0.29 mV | 0 * mV | 4.82 ± 0.24 min⁻¹ | 0 * min^−1 |  | 0%
5 | − |  | CC(C)C(Cc1ccccc1)NC(=O)c1ccccc1Cl (centres unmarked) [Compound 4c, 2-Chloro-N-(3-methyl-1-phenylbutan-2-yl)benzamide] |  | 367 ± 8.4 µM | 266 ± 16.8 µM |  |  | > 300 µM | no modulation on the 5-HT3R expression; also recorded: no 5-HT3 expression observed | 5.34 ± 0.20 mV | 1.56 ± 0.17 mV | 4.42 ± 0.41 min⁻¹ | 26.16 ± 0.26 min⁻¹ | do not affect the BEA | 0%
